# According to patent publication EP2140864A2 (H. Lundbeck A/S, priority 2001, dated 2002):
# Marks after values point to notes of the source that are not given here.
# Legend:
# [1] = target: T1, human histamine H1 receptor (Homo sapiens, UniProt P35367); experiment: Radioligand binding, histamine H1 receptor; conditions: for selectivity ratio hH1: Table 10, Ki hH1 divided by Ki hGAL3
# T1 construct: expressed in transfected cells
# Text: Other receptors: Cell membranes expressing human dopamine D1, D2, D4 and rat D3 receptors were purchased through BioSignal, Inc. (Montreal, Canada). Binding assays using the histamine H1 receptor; dopamine receptors; and α1A, α1E, and α2 adrenergic receptors may be carried out according to the procedures described in U.S. Patent No. 5,780,485, the disclosure of which is hereby incorporated by reference in its entirety into this application. Binding assays using the dopamine D5 receptor may be carried out according to the procedures described in U.S. Patent No. 5,882,855, the disclosure of which is hereby incorporated by reference in its entirety into this application. Binding assays for the human α1D adrenergic receptor may be carried out according to the procedures described in U.S. Patent No. 6,156,518, the disclosure of which is hereby incorporated by reference in its entirety into this application.
# Binding data were analyzed using nonlinear regression and statistical techniques available in the GraphPAD Prism package (San Diego, CA). Enzymatic assay data were derived from a standard curve of reference compound data.
# [2] = test system: Male albino Sprague-Dawley rats; experiment: Rat Social Interaction Test (SIT); type: in vivo
# Method: Rats were allowed to acclimate to the animal care facility for 5 days and were housed singly for 5 days prior to testing. Animals were handled for 5 minutes per day. The design and procedure for the Social Interaction Test was carried out as previously described by Kennett, et al. (1997). On the test day, weight matched pairs of rats (± 5%), unfamiliar to each other, were given identical treatments and returned to their home cages. Animals were randomly divided into 5 treatment groups, with 5 pairs per group, and were given one of the following i.p. treatments: Example 92 (10, 30 or 100 mg/kg), vehicle (1 ml/kg) or chlordiazepoxide (5 mg/kg). Dosing was 1 hour prior to testing. Rats were subsequently placed in a white perspex test box or arena (54 x 37 x 26 cm), whose floor was divided up into 24 equal squares, for 15 minutes. An air conditioner was used to generate background noise and to keep the room at approximately 74°F. All sessions were videotaped using a JVC camcorder (model GR-SZ1, Elmwood Park, NJ) with either TDK (HG ultimate brand) or Sony 30 minute videocassettes. All sessions were conducted between 1:00 - 4:30 P.M. Active social interaction, defined as grooming, sniffing, biting, boxing, wrestling, following and crawling over or under, was scored using a stopwatch (Sportsline model no. 226, 1/100 sec. discriminability). The number of episodes of rearing (animal completely raises up its body on its hind limbs), grooming (licking, biting, scratching of body), and face washing (i.e. hands are moved repeatedly over face), and number of squares crossed were scored. Passive social interaction (animals are lying beside or on top of each other) was not scored. All behaviors were assessed later by an observer who was blind as to the treatment of each pair. At the end of each test, the box was thoroughly wiped with moistened paper towels.
# Male albino Sprague-Dawley rats (Taconic Farms, NY) were housed in pairs under a 12 hr light dark cycle (lights on at 0700 hrs.) with free access to food and water.
# Example 92 was dissolved in 100% DMSO (Sigma Chemical Co., St. Louis, MO). Chlordiazepoxide (purchased from Sigma Chemical Co., St. Louis, MO) was dissolved in double distilled water. The vehicle consisted of 50% DMSO (v/v). All drug solutions were made up 10 minutes prior to injection and the solutions were discarded.
# Example 34 was dissolved in 5% lactic acid, v/v. The vehicle consisted of 100% dimethylacetamide (DMA) and this was used to make up all drug solutions. All drug solutions were made up fresh each day and any unused solutions were discarded at the end of the test day. The volume of drug solution administered was 1 ml/kg.
# The social interaction data (time interacting, rearing and squares crossed) were subjected to a randomized, one-way ANOVA and post hoc tests conducted using the Student-Newman-Keuls test. The data were subjected to a test of normality (Shapiro-Wilk test). The data were analyzed using the GBSTAT program, version 6.5 (Dynamics Microsystems, Inc., Silver Spring, MD, 1997). All data are presented as means ± S.E.M.
# [3] = test system: Male albino Sprague-Dawley rats; experiment: Rat Social Interaction Test (SIT); type: in vivo; conditions: for Social Interaction: unfamiliar cage mates in a familiar arena
# [4] = 10 mg/kg i.p., 1 hour prior to testing
# [5] = 100 mg/kg i.p., 1 hour prior to testing
# [6] = 30 mg/kg i.p., 1 hour prior to testing
# [7] = 0.03 mg/kg p.o., one hour before test
# [8] = 0.1 mg/kg p.o., one hour before test
# [9] = 0.3 mg/kg p.o., one hour before test
# [10] = 1 mg/kg p.o., one hour before test
# T1 sequence (P35367 whole entry): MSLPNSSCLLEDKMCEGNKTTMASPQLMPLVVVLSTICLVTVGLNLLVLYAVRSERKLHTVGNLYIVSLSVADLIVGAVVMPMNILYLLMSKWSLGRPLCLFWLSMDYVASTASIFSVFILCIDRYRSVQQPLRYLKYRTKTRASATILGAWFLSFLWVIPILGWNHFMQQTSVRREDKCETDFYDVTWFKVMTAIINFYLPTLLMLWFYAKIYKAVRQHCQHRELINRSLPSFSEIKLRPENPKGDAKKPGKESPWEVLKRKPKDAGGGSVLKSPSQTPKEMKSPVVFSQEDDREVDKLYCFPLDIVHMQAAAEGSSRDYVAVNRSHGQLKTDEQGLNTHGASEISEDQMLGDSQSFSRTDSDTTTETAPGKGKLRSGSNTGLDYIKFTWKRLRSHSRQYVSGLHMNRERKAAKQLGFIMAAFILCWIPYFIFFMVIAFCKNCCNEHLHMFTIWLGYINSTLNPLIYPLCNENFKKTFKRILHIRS
smiles,measurement,setting,value
CN(C)c1cc(Nc2ccc(Cl)c(Cl)c2)nc(Nc2ccccc2)n1 [Example 60],Ki,"[1]; Table 9, read-out: hH1 Ki",39.9 µM
same,selectivity ratio hH1,[1],>100
"O=C1C(=Nc2cccc(C(F)(F)F)c2)c2ccccc2N1c1ccccc1 [Example 92, 1-PHENYL-3- [[3-(TRIFLUOROMETHYL)PHENYL]IMINO]-1,3-DIHYDRO-2H-INDOL-2-ONE]",Squares Crossed,[2]; [4],298 ± 40
same,Grooming bouts,[2]; [5],6.8 ± 1.3
same,Rearings,[2]; [5],31 ± 4
same,selectivity ratio hH1,[1],>100
same,Grooming bouts,[3]; [4],6.1 ± 0.5
same,Rearings,[3]; [4],47 ± 8^a
same,Grooming bouts,[3]; [6],6.2 ± 0.7
same,Rearings,[3]; [6],45 ± 5^b
same,Squares Crossed,[3]; [6],368 ± 36
same,Squares Crossed,[3]; [5],195 ± 19^c
Cc1ccc(Nc2cc(N3CCCCC3)nc(N3CCN(c4ncccc4C(F)(F)F)CC3)n2)cc1 [Example 34],anxiolytic profile in the Social Interaction Test (conclusion),[2]; overall conclusion of the study,produces an anxioltyic action
same,Grooming bouts,[3]; [7],4.0 ± 0.4^&
same,Rearing,[3]; [7],27 ± 3
same,Squares Crossed,[3]; [7],312 ± 23
same,Social Interaction,[3]; [7],62 ± 11 s
same,Grooming bouts,[3]; [8],7.6 ± 0.5^+
same,Rearing,[3]; [8],40 ± 5
same,Squares Crossed,[3]; [8],295 ± 40
same,Social Interaction,[3]; [8],66 ± 7 s
same,Grooming bouts,[3]; [9],7.2 ± 1.1
same,Rearing,[3]; [9],27 ± 2^S
same,Squares Crossed,[3]; [9],363 ± 17
same,Social Interaction,[3]; [9],53 ± 6 s
same,Grooming bouts,[3]; [10],7.3 ± 0.8
same,Rearing,[3]; [10],40 ± 1
same,Squares Crossed,[3]; [10],343 ± 15^@
same,Social Interaction,[3]; [10],69 ± 6 s
same,increase in the duration of social interaction compared to vehicle,"[3]; 0.03, 0.1, 0.3 or 1 mg/kg p.o., single administration",2-2.6 fold
